pIC50: −log10 of the molar value. Values joined by “and” are separate entries in the source; they are usually repeats but may differ in a detail not shown here. Identical values can stand only once.
Legend:
RAF-1 = molecular target: T1, RAF-1 (Homo sapiens, UniProt P04049); assay: RAF-1 ELISA phosphorylation assay (RAF-catalyzed phosphorylation of MEK and MAPK); type: biochemical; conditions: RAF-1 phosphorylation assay, lysates from RAS/RAF infected Sf9 cells, substrates T-MEK and His-MAPK
T1 construct: made in house; host or cells: Sf9 (Spodoptera frugiperda) cells co-infected with RAS and RAF recombinant baculoviruses
Excerpt: The following assay reports the amount of RAF-catalyzed phosphorylation of its target protein MEK as well as MEK's target MAPK. The RAF gene sequence is described in Bonner et al., 1985, Molec. Cell. Biol. 5: 1400-1407, and is readily accessible in multiple gene sequence data banks. Construction of the nucleic acid vector and cell lines utilized for this portion of the invention are fully described in Morrison et al., 1988, Proc. Natl. Acad. Sci. USA 85: 8855-8859.
• 1. Sf9 (Spodoptera frugiperda) cells; GIBCO-BRL, Gaithersburg, Md. • 2. RIPA buffer: 20 mM Tris/HCl pH 7.4, 137 mM NaCl, 10% glycerol, 1 mM PMSF, 5 mg/L Aprotenin, 0.5% Triton X-100; • 3. Thioredoxin-MEK fusion protein (T-MEK): T-MEK expression and purification by affinity chromatography were performed according to the manufacturer's procedures. Catalog#K 350-01 and R 350-40, Invitrogen Corp., San Diego, Calif. • 4. His-MAPK (ERK 2); His-tagged MAPK was expressed in XL1 Blue cells transformed with pUC18 vector encoding His-MAPK. His-MAPK was purified by Ni-affinity chromatography. Cat#27-4949-01, Pharmacia, Alameda, Calif., as described herein. • 5. Sheep anti mouse IgG: Jackson laboratories, West Grove, Pa. Catalog, #515-006-008, Lot#28563 • 6. RAF-1 protein kinase specific antibody: URP2653 from UBI. • 7. Coating buffer: PBS; phosphate buffered saline, GIBCO-BRL, Gaithersburg, Md. • 8. Wash buffer: TBST-50 mM Tris/HCL pH 7.2, 150 mM NaCl, 0.1% Triton X-100 • 9. Block buffer: TBST, 0.1% ethanolamine pH 7.4 • 10. DMSO, Sigma, St. Louis, Mo. • 11. Kinase buffer (KB): 20 mM Hepes/HC1 pH 7.2, 150 mM NaCl, 0.1% Triton X-100, 1 mM PMSF, 5 mg/L Aprotenin, 75 μM sodium ortho vanadate, 0.5 MM DTT and 10 mM MgCl2. • 12. ATP mix: 100 mM MgCl2, 300 μM ATP, 10 μCi γ-^33P ATP (Dupont-NEN)/mL. • 13 Stop solution: 1% phosphoric acid; Fisher, Pittsburgh, Pa. • 14. Wallac Cellulose Phosphate Filter mats; Wallac, Turku, Finnland. • 15. Filter wash solution: 1% phosphoric acid, Fisher, Pittsburgh, Pa. • 16. Tomtec plate harvester, Wallac, Turku, Finnland. • 17. Wallac beta plate reader #1205, Wallac, Turku, Finnland. • 18. NUNC 96-well V bottom polypropylene plates for compounds Applied Scientific Catalog #AS-72092. Procedure
All of the following steps were conducted at room temperature unless specifically indicated. • 1. ELISA plate coating: ELISA wells are coated with 100 μL of Sheep anti mouse affinity purified antiserum (1 μg/100 μL coating buffer) over night at 4° C. ELISA plates can be used for two weeks when stored at 4° C. • 2. Invert the plate and remove liquid. Add 100 μL of blocking solution and incubate for 30 min. • 3. Remove blocking solution and wash four times with wash buffer. Pat the plate on a paper towel to remove excess liquid. • 4. Add 1 μg of antibody specific for RAF-1 to each well and incubate for 1 hour. Wash as described in step 3. • 5. Thaw lysates from RAS/RAF infected Sf9 cells and dilute with TBST to 10 μg/100 μL. Add 10 μg of diluted lysate to the wells and incubate for 1 hour. Shake the plate during incubation. Negative controls receive no lysate. Lysates from RAS/RAF infected Sf9 insect cells are prepared after cells are infected with recombinant baculoviruses at a MOI of 5 for each virus, and harvested 48 hours later. The cells are washed once with PBS and lysed in RIPA buffer. Insoluble material is removed by centrifugation (5 min at 10,000×g). Aliquots of lysates are frozen in dry ice/ethanol and stored at −80° C. until use. • 6. Remove non-bound material and wash as outlined above (step 3). • 7. Add 2 μg of T-MEK and 2 μg of His-MAEPK per well and adjust the volume to 40 μL with kinase buffer. Methods for purifying T-MEK and MAPK from cell extracts are provided herein by example. • 8. Predilute compounds (stock solution 10 mg/mL DMSO) or extracts 20 fold in TBST plus 1% DMSO. Add 5 μL of the prediluted compounds/extracts to the wells described in step 6. Incubate for 20 min. Controls receive no drug. • 9. […]

T1 sequence (P04049 whole entry): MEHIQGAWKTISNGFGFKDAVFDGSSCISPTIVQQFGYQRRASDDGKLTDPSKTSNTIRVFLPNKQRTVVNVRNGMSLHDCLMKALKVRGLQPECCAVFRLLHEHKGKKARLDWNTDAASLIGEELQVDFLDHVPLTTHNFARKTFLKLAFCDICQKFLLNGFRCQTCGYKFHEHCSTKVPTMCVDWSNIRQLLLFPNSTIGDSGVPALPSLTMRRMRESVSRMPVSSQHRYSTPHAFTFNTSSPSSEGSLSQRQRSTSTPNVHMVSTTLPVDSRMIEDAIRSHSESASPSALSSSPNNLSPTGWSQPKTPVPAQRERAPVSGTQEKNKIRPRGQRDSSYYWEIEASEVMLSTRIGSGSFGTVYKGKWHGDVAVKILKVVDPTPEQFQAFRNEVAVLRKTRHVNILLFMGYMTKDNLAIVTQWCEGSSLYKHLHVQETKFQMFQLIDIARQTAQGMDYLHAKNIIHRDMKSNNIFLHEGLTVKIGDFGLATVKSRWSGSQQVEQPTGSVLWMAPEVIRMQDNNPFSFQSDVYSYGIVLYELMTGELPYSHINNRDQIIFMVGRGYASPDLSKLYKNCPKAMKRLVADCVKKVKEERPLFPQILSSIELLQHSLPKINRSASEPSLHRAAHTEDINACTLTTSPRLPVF

Row | SMILES | pIC50 (RAF-1) | melting point
1 | Nc1nc(N)c2c(Sc3ccc(Cl)cc3)cccc2n1 [Compound A-5, 2,4-Diamino-5-(4-chlorophenylthio)quinazoline] | < 4.00 | 
2 | Nc1nc(N)c2c(Oc3cccc(C(F)(F)F)c3)cccc2n1 [Compound A-11, 2,4-Diamino-5-(3-trifluoromethylphenoxy)quinazoline] | < 4.00 | 
3 | Nc1nc(-c2ccccc2)nc2cccc(Oc3ccccc3)c12 [Compound A-12, 4-Amino-2-phenyl-5-phenoxyquinazoline] | < 4.00 | 190 to 191 °C
4 | CN(C)c1cccc(Oc2cccc3nc(N)nc(N)c23)c1 [Compound A-14, 2,4-Diamino-5-(3-dimethylaminophenoxy)quinazoline] | 4.61 and 4.24 | 
5 | Nc1nc(N)c2c(Nc3ccccc3)cccc2n1 [Compound A-35, 2,4-Diamino-5-anilinoquinazoline] |  | 279 to 283 °C (dec.)

Results, then the compound that gave them:

Row | pIC50 (RAF-1) | melting point | SMILES
6 | 4.59 |  | Nc1ncnc2cccc(Sc3ccccc3)c12 [Compound A-3, 4-Amino-5-phenylthioquinazoline]
7 | < 4.00 |  | Cc1ccc(Sc2cccc3nc(N)nc(N)c23)cc1 [Compound A-4, 2,4-Diamino-5-(4-methylphenylthio)quinazoline]
8 | 7.00 | 188 to 190 °C | Nc1ncnc2cccc(Oc3ccc(F)cc3)c12 [Compound A-13, 4-Amino-5-(4-fluorophenoxy)quinazoline]
9 | 6.10 |  | COc1ccc(Oc2cccc3ncnc(N)c23)cc1 [Compound A-15, 4-Amino-5-(4-methoxyphenoxy)quinazoline]
